Where two headings read alike, the source gives them in different places. Blank lines part the entries; values can stand above or below the compound they belong to.
Tests used:
human α2A‐adrenoceptor [1] = biological target: T1, human α2A‐adrenoceptor (Homo sapiens, UniProt P08913); experiment: cell-based
T1 sequence (P08913 1-465): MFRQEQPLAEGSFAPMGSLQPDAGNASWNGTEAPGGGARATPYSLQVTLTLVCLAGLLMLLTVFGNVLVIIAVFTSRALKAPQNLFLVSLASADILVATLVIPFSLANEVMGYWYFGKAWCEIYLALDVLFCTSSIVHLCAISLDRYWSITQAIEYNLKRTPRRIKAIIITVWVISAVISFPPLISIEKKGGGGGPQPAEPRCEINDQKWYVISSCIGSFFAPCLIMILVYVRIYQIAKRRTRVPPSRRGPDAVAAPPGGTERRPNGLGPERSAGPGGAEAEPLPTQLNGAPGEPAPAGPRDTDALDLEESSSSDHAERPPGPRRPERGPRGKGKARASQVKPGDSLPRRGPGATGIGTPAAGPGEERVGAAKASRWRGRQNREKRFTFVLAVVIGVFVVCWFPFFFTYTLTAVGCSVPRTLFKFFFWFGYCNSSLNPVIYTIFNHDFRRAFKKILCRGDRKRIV

human α2B‐adrenoceptor [2] = biological target: T2, human α2B‐adrenoceptor (Homo sapiens, UniProt P18089); experiment: ^3H‐rauwolscine whole cell competition binding, CHO‐α2B cells; conditions: for Selectivity ratio α2A vs α2B (higher affinity for α2B): ratio of KD values
T2 sequence (P18089 1-450): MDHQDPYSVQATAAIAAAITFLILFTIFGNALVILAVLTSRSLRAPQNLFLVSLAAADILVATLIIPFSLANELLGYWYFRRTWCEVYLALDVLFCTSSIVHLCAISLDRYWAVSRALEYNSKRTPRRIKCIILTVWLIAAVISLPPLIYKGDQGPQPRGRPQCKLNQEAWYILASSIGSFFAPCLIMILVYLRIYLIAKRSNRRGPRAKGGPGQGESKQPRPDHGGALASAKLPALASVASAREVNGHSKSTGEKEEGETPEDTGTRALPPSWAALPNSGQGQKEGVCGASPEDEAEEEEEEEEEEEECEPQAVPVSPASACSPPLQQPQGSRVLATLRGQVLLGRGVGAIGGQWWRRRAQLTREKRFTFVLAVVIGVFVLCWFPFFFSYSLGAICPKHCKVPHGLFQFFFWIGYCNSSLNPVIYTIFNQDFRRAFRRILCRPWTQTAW

human α2C‐adrenoceptor [3] = biological target: T3, human α2C‐adrenoceptor (Homo sapiens, UniProt P18825); experiment: cell-based
T3 sequence (P18825 1-462): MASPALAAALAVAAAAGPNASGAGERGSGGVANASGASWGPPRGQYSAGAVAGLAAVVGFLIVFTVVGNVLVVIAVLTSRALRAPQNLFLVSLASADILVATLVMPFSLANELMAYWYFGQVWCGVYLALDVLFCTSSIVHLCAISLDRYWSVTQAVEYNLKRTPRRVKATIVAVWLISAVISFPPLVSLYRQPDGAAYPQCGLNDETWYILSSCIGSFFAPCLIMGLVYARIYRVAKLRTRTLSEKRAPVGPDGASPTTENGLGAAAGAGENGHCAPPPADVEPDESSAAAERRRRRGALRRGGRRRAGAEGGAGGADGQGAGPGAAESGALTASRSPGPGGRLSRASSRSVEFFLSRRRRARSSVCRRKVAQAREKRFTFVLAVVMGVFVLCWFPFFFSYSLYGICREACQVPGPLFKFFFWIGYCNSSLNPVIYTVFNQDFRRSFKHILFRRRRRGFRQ

human β2‐adrenoceptor = human β2‐adrenoceptor (Homo sapiens, UniProt P07550); format: binding; conditions: for IC50: read-out: IC50 (log) β2, IC50>top concentration used (converted); for Kd / Log KD β2: mean ± s.e.mean; for Kd: read-out: Log KD β2 (converted)
human β1‐adrenoceptor [4] = biological target: T4, human β1‐adrenoceptor (Homo sapiens, UniProt P08588); experiment: cell-based
human α2C‐adrenoceptor [5] = biological target: T3, human α2C‐adrenoceptor; experiment: ^3H‐rauwolscine whole cell competition binding, CHO‐α2C cells; conditions: for Selectivity ratio α2A vs α2C (higher affinity for α2C) / Selectivity ratio α2B vs α2C (higher affinity for α2C): ratio of KD values
human α2A‐adrenoceptor [6] = biological target: T1, human α2A‐adrenoceptor; experiment: ^3H‐rauwolscine whole cell competition binding, CHO‐α2A cells
human β1‐adrenoceptor [7] = biological target: T4, human β1‐adrenoceptor; conditions: mean ± s.e.mean
human α2B‐adrenoceptor [8] = biological target: T2, human α2B‐adrenoceptor; experiment: cell-based
human α2C‐adrenoceptor [9] = biological target: T3, human α2C‐adrenoceptor
human α2A‐adrenoceptor [10] = biological target: T1, human α2A‐adrenoceptor
[11] = ^3H‐CGP12177 whole cell binding, log values, ^app = apparent KD, 'no binding to' = log top concentration
[12] = given as log KD (negative values), 3H-CGP12177 whole cell binding, CHO cells

T4 sequence (P08588 whole entry): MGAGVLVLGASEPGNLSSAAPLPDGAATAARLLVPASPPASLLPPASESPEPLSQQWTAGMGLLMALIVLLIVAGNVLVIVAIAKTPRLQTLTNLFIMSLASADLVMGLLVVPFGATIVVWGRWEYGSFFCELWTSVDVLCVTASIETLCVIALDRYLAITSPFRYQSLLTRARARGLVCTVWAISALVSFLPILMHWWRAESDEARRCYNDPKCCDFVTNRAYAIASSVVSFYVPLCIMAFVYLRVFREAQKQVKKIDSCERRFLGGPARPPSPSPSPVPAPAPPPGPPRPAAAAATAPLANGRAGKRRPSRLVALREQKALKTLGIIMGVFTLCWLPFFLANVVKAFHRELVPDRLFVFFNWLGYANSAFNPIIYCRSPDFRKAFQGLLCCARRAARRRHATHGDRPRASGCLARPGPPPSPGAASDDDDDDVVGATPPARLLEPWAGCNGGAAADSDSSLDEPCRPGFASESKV
human β2‐adrenoceptor, sequence (P07550 whole entry): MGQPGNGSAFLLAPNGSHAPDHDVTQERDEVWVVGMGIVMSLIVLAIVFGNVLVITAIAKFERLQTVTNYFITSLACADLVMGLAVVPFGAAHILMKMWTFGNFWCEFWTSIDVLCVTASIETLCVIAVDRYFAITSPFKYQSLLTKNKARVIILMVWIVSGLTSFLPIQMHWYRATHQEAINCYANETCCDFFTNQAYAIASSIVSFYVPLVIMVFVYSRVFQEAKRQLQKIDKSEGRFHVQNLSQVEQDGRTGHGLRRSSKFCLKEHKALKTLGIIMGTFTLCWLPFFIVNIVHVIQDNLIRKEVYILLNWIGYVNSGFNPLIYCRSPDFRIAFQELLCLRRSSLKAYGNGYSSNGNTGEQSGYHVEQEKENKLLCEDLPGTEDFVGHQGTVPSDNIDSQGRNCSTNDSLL

SMILES: CC(C)NCC(O)COc1cccc2[nH]c3ccccc3c12 (stereo not shown) [carazolol]
Kd (human α2A‐adrenoceptor [1]): 21.9 µM | IC50 (human α2B‐adrenoceptor [2]): > 100 µM | Kd (human α2C‐adrenoceptor [3]): 21900 nM

SMILES: Fc1ccc([C@@H]2CCNC[C@H]2COc2ccc3c(c2)OCO3)cc1 [paroxetine]
IC50 (human β2‐adrenoceptor; ^3H‐CGP12177, log value): > 31.6 µM | IC50 (human β1‐adrenoceptor [4]): > 31.6 µM | IC50 (human α2C‐adrenoceptor [5]): > 10 µM

SMILES: COc1ccccc1N1CCN(CCCNc2cc(=O)n(C)c(=O)n2C)CC1 [urapidil]
Kd (human β2‐adrenoceptor; [11]): 10 µM | Kd (human α2A‐adrenoceptor [1]): 3.24 µM

SMILES: c1ccc2c(c1)OCC(C1=NCCN1)O2 (stereo not shown) [idazoxan]
IC50 (human β2‐adrenoceptor; ^3H‐CGP12177, log value): > 1000 µM | IC50 (human β1‐adrenoceptor [4]): > 1000 µM

SMILES: CNCC[C@H](Oc1cccc2ccccc12)c1cccs1 [duloxetine]
Kd (human α2B‐adrenoceptor [2]): 4900 nM | Kd (human α2A‐adrenoceptor [6]): 3.72 µM | IC50 (human β1‐adrenoceptor [4]): > 31.6 µM | Kd (human α2C‐adrenoceptor [5]): 2140 nM

SMILES: CC(C(O)c1ccc(O)cc1)N1CCC(Cc2ccccc2)CC1 (stereo not shown) [ifenprodil]
IC50 (human β2‐adrenoceptor; ^3H‐CGP12177, log value): > 10 µM | Kd (human α2A‐adrenoceptor [1]): 0.977 µM | Kd (human α2B‐adrenoceptor [2]): 724 nM | Selectivity ratio α2A vs α2B (higher affinity for α2B) (human α2B‐adrenoceptor [2]): 1.3 | IC50 (human β1‐adrenoceptor [4]): > 10 µM | Kd (human α2C‐adrenoceptor [3]): 158 nM | Selectivity ratio α2A vs α2C (higher affinity for α2C) (human α2C‐adrenoceptor [5]): 6.2 | Selectivity ratio α2B vs α2C (higher affinity for α2C) (human α2C‐adrenoceptor [5]): 4.6

SMILES: CC(CN1c2ccccc2Sc2ccccc21)N(C)C (stereo not shown) [promethazine]
IC50 (human β2‐adrenoceptor; ^3H‐CGP12177, log value): > 100 µM | IC50 (human β1‐adrenoceptor [4]): > 100 µM | Kd (human α2C‐adrenoceptor [3]): 2880 nM

SMILES: COc1cc2nc(N3CCN(C(=O)c4ccco4)[C@H]4CCCC[C@H]43)nc(N)c2cc1OC (racemic) [cyclazosin]
Kd (human β2‐adrenoceptor; [11]): 5.01 µM | Kd (human α2A‐adrenoceptor [1]): 10 µM | Log KD β1 (human β1‐adrenoceptor [7]; [11]): No binding to −4 | Log KD β1 (human β1‐adrenoceptor [7]; [12]): No binding to -4 | Selectivity ratio α2A vs α2B (higher affinity for α2B) (human α2B‐adrenoceptor [2]): 2.2 | Kd (human α2C‐adrenoceptor [3]): 661 nM | Kd (human α2B‐adrenoceptor [8]): 4.47 µM | Selectivity ratio α2A vs α2C (higher affinity for α2C) (human α2C‐adrenoceptor [5]): 15.1 | Selectivity ratio α2B vs α2C (higher affinity for α2C) (human α2C‐adrenoceptor [5]): 6.8

SMILES: CN(C)CCC=C1c2ccccc2CCc2ccccc21 [amitriptyline]
IC50 (human β2‐adrenoceptor; ^3H‐CGP12177, log value): > 100 µM | Kd (human α2A‐adrenoceptor [1]): 1.38 µM | IC50 (human β1‐adrenoceptor [4]): > 100 µM | Kd (human α2C‐adrenoceptor [3]): 214 nM

SMILES: COC(=O)C1=C(C)NC(C)=C(C(=O)NCCCN2CCC(c3ccccc3)(c3ccccc3)CC2)C1c1ccc([N+](=O)[O-])cc1 (stereo not shown) [SNAP5089]
IC50 (human β2‐adrenoceptor): > 10 µM | IC50 (human β1‐adrenoceptor [4]): > 10 µM

Further lines, results first:

Kd (human α2A‐adrenoceptor [1]): 9.33 µM | IC50 (human α2B‐adrenoceptor [2]): > 100 µM | Kd (human α2C‐adrenoceptor [3]): 8910 nM
SMILES: Cc1ccc(OCC(O)C(C)NC(C)C)c2c1CCC2 (stereo not shown) [ICI118551]

IC50 (human β2‐adrenoceptor; ^3H‐CGP12177, log value): > 100 µM | Kd (human α2A‐adrenoceptor [1]): 5.01 µM | Kd (human α2C‐adrenoceptor [3]): 550 nM | Kd (human α2B‐adrenoceptor [8]): 10.5 µM
SMILES: COc1ccccc1N1CCN(CCN2C(=O)CC3(CCCC3)CC2=O)CC1 [BMY7378]

Kd (human α2C‐adrenoceptor [9]): 5.13 µM | Log KD β2 (human β2‐adrenoceptor; [11]): No binding to −4 | Log KD β2 (human β2‐adrenoceptor; [12]): No binding to -4 | Log KD β1 (human β1‐adrenoceptor [7]; [11]): No binding to −4 | Log KD β1 (human β1‐adrenoceptor [7]; [12]): No binding to -4 | Kd (human α2A‐adrenoceptor [10]): 2570 nM | IC50 (log) α2B, IC50>top concentration used (human α2B‐adrenoceptor [2]; ^3H‐rauwolscine, top concentration inhibited 50% or less of specific binding, log value): IC50>−4 | Selectivity ratio α2A vs α2C (higher affinity for α2A) (human α2A‐adrenoceptor [6]; ratio of KD values): 2.0
SMILES: COCc1c(Cl)ccc2c1CC[C@H]2c1ncc[nH]1 [PF3774076]

Reference: article PMC8882856, “The affinity and selectivity of α‐adrenoceptor antagonists, antidepressants and antipsychotics for the human α2A, α2B, and α2C‐adrenoceptors and comparison with human α1 and β‐adrenoceptors” (Pharmacology Research & Perspectives, 2022)
